Source: publication PMC9727179, “Acorane sesquiterpenes from the deep-sea derived Penicillium bilaiae fungus with anti-neuroinflammatory effects” (Frontiers in Chemistry, 2022)
“Also recorded” adds a separate entry of the source. Where two headings read alike, the source gives them in different places.

What was measured:
[1] = tested on: BV-2 microglial cells; assay: Cell viability / cytotoxicity, MTT method; assay type: cell-based, murine; conditions: BV-2 cells
Procedure: (§1) Murine BV-2 microglial cells were obtained from the Cell Culture Center of Institute of Basic Medical Sciences, Chinese Academy of Medical Sciences, and the cells were cultured in Dulbecco’s modified Eagle’s medium (Gibco) together with 10% (v/v) fetal bovine serum (HyClone) within a 5% CO2 incubator at 37°C. The MTT method was utilized to detect the cytotoxicity of the compound to read the absorbance at 570 nm using a microplate spectrophotometer (Thermo Scientifics, United States).

[2] = tested on: NO production in LPS-induced BV-2 cells; assay: Inhibition of NO production in LPS-induced BV-2 cells (Griess method); assay type: cell-based, murine; conditions: for IC50: LPS (1 μg/ml)-induced BV-2 cells, 24 h, read-out: IC50, inhibitory effect against NO production
Procedure: In the presence or absence of LPS (1 μg/ml), murine BV-2 microglial cells were treated with compounds with different concentrations for 24 h. The same volume of Griess reagent was added to the supernatant of culture media. The Griess method was used to determine the NO levels under the absorbance at 540 nm measured using a microplate spectrophotometer (Thermo Scientifics, United States). Based on the established calibration curve of standard sodium nitrite solutions, the content of nitrite was calculated.

[3] = Cell viability / cytotoxicity, MTT method; assay type: cell-based, murine; conditions: mouse, BV-2 microglial cells, BV-2 cells
Procedure: as §1

[4] = tested on: iNOS; assay: Western blot of iNOS protein expression in LPS-induced BV-2 cells; assay type: cell-based, murine; conditions: LPS (1 μg/mL)-induced BV-2 cells, different concentrations, 24 h
Procedure: (§2) In 12-well plates, BV-2 cells were seeded to incubate with LPS (1 μg/ml) for 1 h. Each compound was incubated with BV-2 cells for 16 h. Phenylmethylsulfonyl fluoride-protease inhibitor cocktail as the cell extraction buffer was used to lyse cells. Nuclear and cytosolic extraction kits were applied for the collection of the cytosolic and nuclear extracts. Upon SDS-PAGE, proteins were purified and transferred to PVDF membranes (Millipore). After treatment with 5% (W/V) skim milk in TBST (Tris-buffered saline with 0.1% Tween 20) for 1 h, the membranes were maintained at 4°C overnight. The membrane was washed and then incubated with a secondary antibody at 20°C for 1 h. The target proteins were visualized under a chemiluminescence (ECL) detection system, and the relative optical densities were analyzed by Image Master™ 2D Elite software.
(§3) FIGURE 6 Analog 18 inhibited the expression of iNOS and COX-2 in LPS-induced BV-2 cells. Cells were stimulated by 1 μg/mL LPS with or without 18 for 24 h. (A) The protein expressions o f iNOS treated by different concentrations of 18 were determined by Western blot assay, (B) the expressions of COX-2 t reated by different concentrations of 18 were determined by Western blot assay. […]

[5] = tested on: COX-2; assay: Western blot of COX-2 protein expression in LPS-induced BV-2 cells; assay type: cell-based, murine; conditions: LPS (1 μg/mL)-induced BV-2 cells, different concentrations, 24 h
Procedure: as §2, §3

[6] = tested on: phosphorylation of JNK, ERK and p38 (MAPK signaling pathway); assay: MAPK phosphorylation in LPS-stimulated BV-2 cells; assay type: cell-based, murine; conditions: LPS-stimulated BV-2 microglial cells
Procedure: as §2

[7] = tested on: COX-2; assay: COX-2 mRNA level; assay type: cell-based
[8] = tested on: iNOS; assay: iNOS mRNA level; assay type: cell-based
[9] = tested on: NF-κB p65; assay: Nuclear translocation of NF-κB p65 in LPS-stimulated BV-2 cells (immunofluorescence and Western blot); assay type: cell-based, murine; conditions: LPS (1 μg/ml)-stimulated BV-2 cells, 2 μM, 3 h, immunofluorescence and WB
Procedure: as §2
Prior to LPS induction, BV-2 cells were pretreated by the compound (2 μM) in DMSO. Cells were seeded in glass coverslips, which were then treated with cold 4% paraformaldehyde and 0.2% Triton X-100 (in PBS). […] Images were detected using a fluorescence microscope (OLYMPUS IX83).
FIGURE 8 Effect of analog 18 on the nuclear translocation of NF-κB p65 in LPS-stimulated BV-2 cells. […] (B) BV-2 cells were stimulated with LPS (1 μg/ml) in the absence or presence of 18 (2 μM) for 3 h, and NF-kB p65 levels in the nucleus and cytoplasm were determined by Western blot. […]

| Compound | CC50 [3] [µM] | IC50 ([2]; Mus musculus, BV-2, 24 h) [µM] | other results |
| --- | --- | --- | --- |
| adametacorenol B [Compound 20] | – | – | CC50 [1]: > 100 µM; IC50 [2]: > 10 µM |
| [H]/N=C(/NC)NCCC[C@H](N)C(=O)O [L-NMMA, NG-monomethyl-L-arginine, reference compound] | > 100 | 6.8 ± 4.2 | – |
| CC1=CCC23CC1OC(C)(CO)C2C(O)CC3C (centres unmarked) [Compound 1, Bilaiaeacorenol A] | > 100 | > 10 | – |
| C=C(C)C1C(O)CC(C)C12CC=C(C)C(O)C2 (centres unmarked) [Compound 6, Bilaiaeacorenol F] | – | – | CC50 [1]: > 100 µM; IC50 [2]: > 10 µM |
| C=C(C)C1C(OC(C)=O)CC(C)C12CC(O)C(C)=CC2O (centres unmarked) [Compound 9, Bilaiaeacorenol I] | > 100 | – | IC50 ([2]; Mus musculus): 3.5 ± 0.1 µM |
| C=C(C)C1C(O)CC(C)C12CC=C(C)C(O)C2 (centres unmarked) [Compound 5, Bilaiaeacorenol E] | > 100 | > 10 | – |
| C=C(C)C1C(O)CC(C)C12C=CC(C)(O)C(O)C2 (centres unmarked) [Compound 11, Bilaiaeacorenol K] | > 100 | 8.7 ± 2.1 | – |
| adametacorenol A [Compound 19] | – | – | CC50 [1]: > 100 µM; IC50 [2]: > 10 µM |
| C=C(C)C1C(O)CC(C)C12CC=C(CO)C(O)C2 (centres unmarked) [Compound 7, Bilaiaeacorenol G] | > 100 | > 10 | – |
| C=C(C)C1C(O)CC(C)C12CC(O)C(C)=CC2O (centres unmarked) [Compound 8, Bilaiaeacorenol H] | > 100 | > 10 | – |
| C=C(C)C1C(O)CC(C)C12CC(=O)C(C)C(O)C2 (centres unmarked) [Compound 17, Bilaiaeacorenol Q] | > 100 | > 10 | – |
| C=C(C)C1C(O)CC(C)C12CCC(C(=O)O)C(O)C2 (centres unmarked) [Compound 18, Bilaiaeacorenol R] | > 100 | 0.5 ± 1.2 | iNOS level (protein) [4]: decreased; COX-2 level (protein) [5]: decreased; phosphorylation of JNK, ERK and p38 [6]: slightly affected; also recorded: Ineffective; COX-2 mRNA level [7]: marked reductions; iNOS mRNA level [8]: marked reductions; p65 level in the nucleus [9]: significantly downregulated; reduction against NO production ([2]; LPS-induced BV-2 cells, dose-dependent manner): efficient reduction |
| C=C(C)C1C(O)CC(C)C12CCC(CO)C(O)C2 (centres unmarked) [Compound 12, Bilaiaeacorenol L] | > 100 | > 10 | – |
| C=C(C)C1C(O)CC(C)C12CCC(CO)C(O)C2 (centres unmarked) [Compound 14, Bilaiaeacorenol N] | – | – | CC50 [1]: > 100 µM; IC50 ([2]; Mus musculus): > 10 µM |
| CC1CC(O)C2C(C)(O)CC3CC12CC=C3CO (centres unmarked) [Compound 2, Bilaiaeacorenol B] | > 100 | 6.1 ± 2.3 | melting point: 108 to 110 °C |
| C=C(C)C1C(OC(C)=O)CC(C)C12CC(O)C(C)(O)C(O)C2 (centres unmarked) [Compound 15, Bilaiaeacorenol O] | > 100 | – | IC50 ([2]; Mus musculus): 3.7 ± 0.1 µM |
| C=C(CO)C1C(OC(C)=O)CC(C)C12CC=C(C)C(O)C2 (centres unmarked) [Compound 10, Bilaiaeacorenol J] | > 100 | > 10 | – |
| CC1=CCC2(CC1O)C(C)CC(O)C2C(C)CO (centres unmarked) [Compound 4, Bilaiaeacorenol D] | > 100 | 7.6 ± 1.2 | – |
| CC1=CCC2(CC1O)C(C)CC(O)C2C(C)(O)CO (centres unmarked) [Compound 3, Bilaiaeacorenol C] | > 100 | 5.3 ± 1.1 | – |
| C=C(C)C1C(OC(C)=O)CC(C)C12CCC(CO)C(O)C2 (centres unmarked) [Compound 13, Bilaiaeacorenol M] | > 100 | 0.53 ± 0.47 | – |
| C=C(C)C1C(O)CC(C)C12CCC(CO)C(O)C2 (centres unmarked) [Compound 16, Bilaiaeacorenol P] | – | – | CC50 [1]: > 100 µM; IC50 [2]: 7.5 ± 0.2 µM |
